Structures can show the parent of a compound that is named as a salt.
target: T1, JAK3 (Homo sapiens, UniProt P52333); assay: Assay for CD23 expression on Ramos B-cells stimulated by IL-4 (Table IV: ability to inhibit JAK3 activity); type: cell-based; settings: tested under conditions described in Example 3 (so in the source)
T1 construct: The Ramos B-cell line was acquired from ATCC (ATCC Catalog No. CRL-1596); host or cells: Ramos B-cell line (human)
T1 sequence (P52333 1-1124): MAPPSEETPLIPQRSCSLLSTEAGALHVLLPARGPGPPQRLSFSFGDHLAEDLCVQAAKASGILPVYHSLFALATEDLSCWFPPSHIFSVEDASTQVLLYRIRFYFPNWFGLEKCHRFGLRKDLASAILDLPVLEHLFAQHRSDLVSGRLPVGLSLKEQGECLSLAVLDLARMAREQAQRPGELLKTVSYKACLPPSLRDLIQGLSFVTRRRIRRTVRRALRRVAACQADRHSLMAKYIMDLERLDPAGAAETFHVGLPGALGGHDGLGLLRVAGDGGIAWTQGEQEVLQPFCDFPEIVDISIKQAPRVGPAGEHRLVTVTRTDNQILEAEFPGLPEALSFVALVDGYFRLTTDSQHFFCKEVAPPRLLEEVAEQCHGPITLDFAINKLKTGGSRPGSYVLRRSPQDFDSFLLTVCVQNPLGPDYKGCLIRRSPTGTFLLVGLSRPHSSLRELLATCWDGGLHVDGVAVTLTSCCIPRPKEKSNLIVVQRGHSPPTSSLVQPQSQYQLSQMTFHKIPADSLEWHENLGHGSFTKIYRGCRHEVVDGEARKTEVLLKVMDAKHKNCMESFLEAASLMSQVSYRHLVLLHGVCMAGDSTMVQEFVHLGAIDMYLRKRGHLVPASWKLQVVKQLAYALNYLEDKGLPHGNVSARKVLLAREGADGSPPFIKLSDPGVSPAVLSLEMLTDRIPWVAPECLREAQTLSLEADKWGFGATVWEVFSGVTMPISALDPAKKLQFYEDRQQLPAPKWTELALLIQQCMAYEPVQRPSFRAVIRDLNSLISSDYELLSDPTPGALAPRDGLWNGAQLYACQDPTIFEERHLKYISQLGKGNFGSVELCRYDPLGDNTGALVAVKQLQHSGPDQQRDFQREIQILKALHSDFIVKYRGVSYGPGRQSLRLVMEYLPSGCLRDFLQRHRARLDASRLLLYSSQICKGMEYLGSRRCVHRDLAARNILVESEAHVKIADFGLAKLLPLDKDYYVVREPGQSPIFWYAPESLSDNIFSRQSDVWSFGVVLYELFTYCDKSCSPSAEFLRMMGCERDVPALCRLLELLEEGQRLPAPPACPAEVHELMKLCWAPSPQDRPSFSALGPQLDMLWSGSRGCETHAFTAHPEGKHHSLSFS
Text: One means of assaying for such inhibition is detection of the effect of the 2,4-pyrimidinediamine compounds on the upregulation of downstream gene products. In the Ramos/IL4 assay, B-cells are stimulated with the cytokine Interleukin-4 (IL-4) leading to the activation of the JAK/Stat pathway through phosphorylation of the JAK family kinases, JAK1 and JAK3, which in turn phosphorylate and activate the transcription factor Stat-6. […] To study the effect of inhibitors (for example, the 2,4-substituted pyrimindinediamine compounds described herein) on the JAK1 and JAK3 kinases, human Ramos B cells are stimulated with human IL-4. 20 to 24 hours post stimulation, cells are stained for upregulation of CD23 and analyzed using FACS.
B-cells stimulated with cytokine Interleukin-4 (IL-4) activate the JAK/Stat pathway through phosphorylation of the JAK family kinases, JAK-1 and JAK-3, which in turn phosphorylate and activate the transcription factor Stat-6. […] To study the effect of inhibitors on the JAK family kinases, human Ramos B cells were stimulated with human IL-4 and the surface expression of CD23 was measured.
The day before the experiment, Ramos B-cells were diluted to 3.5×10^5 cells/mL to ensure that they were in a logarithmic growth phase.
Cells were spun down and suspended in RPMI with 5% serum. 5×10^4 cells were used per point in a 96-well tissue culture plate. Cells were pre-incubated with compound or DMSO (Sigma-Aldrich, St. Louis, Mo., Cat No. D2650) vehicle control for 1 hour in a 37° C. incubator. Cells were then stimulated with IL-4 (Peprotech Inc., Rocky Hill, N.J., Cat No. 200-04) for a final concentration of 50 units/mL for 20-24 hours. […] Detection was performed using a BD LSR I System Flow Cytometer, purchased from Becton Dickinson Biosciences of San Jose, Calif.
The compound designations in Table IV are consistent with those of Tables I-II above.

`CN1C(=O)CCCc2cc(Nc3ncc(F)c(Nc4ccc5oc(=O)[nH]c5c4)n3)ccc21` [II-28, 7-(4-(2,3-dihydro-2-oxobenzo[d]oxazol-5-ylamino)-5-fluoropyrimidin-2-ylamino)-4,5-dihydro-1-methyl-1H-benzo[b]azepin-2(3H)-one trifluoroacetate salt] and `COc1ccc(Nc2ncc(F)c(Nc3ccc4oc(=O)[nH]c4c3)n2)cc1C(F)F` [Compound I-197, 5-(2-(3-(difluoromethyl)-4-methoxyphenylamino)-5-fluoropyrimidin-4-ylamino)benzo[d]oxazol-2(3H)-one formate salt] cannot be ordered by IC50: less than 500 nM for the first, less than 500 nM for the second.

First: Cc1ccc(Nc2ncc(Cl)c(Nc3ccc4oc(=O)[nH]c4c3)n2)cc1N(C)C [Compound I-33, 5-(5-chloro-2-(3-(dimethylamino)-4-methylphenylamino)pyrimidin-4-ylamino)benzo[d]oxazol-2(3H)-one]
Second: COC(=O)c1cnc(Nc2ccc(C)c(N(C)C)c2)nc1Nc1ccc2oc(=O)[nH]c2c1 [Compound I-57, 2-(3-Dimethylamino-4-methyl-phenylamino)-4-(2-oxo-2,3-dihydro-benzooxazol-5-ylamino)-pyrimidine-5-carboxylic acid methyl ester trifluoroacetate salt]
The IC50 of the first is lower: less than 500 nM for the first, greater than 10000 nM for the second.

Going from `CCNc1cc(Nc2ncc(Cl)c(Nc3ccc4oc(=O)[nH]c4c3)n2)cc(C)c1C` [Compound I-87, 5-(5-chloro-2-(3-(ethylamino)-4,5-dimethylphenylamino)pyrimidin-4-ylamino)benzo[d]oxazol-2(3H)-one formate salt] to `Cc1cc(Nc2ncc(C(=O)O)c(Nc3ccc4oc(=O)[nH]c4c3)n2)cc(C)c1C` [Compound I-49, 4-(2-Oxo-2,3-dihydro-benzooxazol-5-ylamino)-2-(3,4,5-trimethyl-phenylamino)-pyrimidine-5-carboxylic acid trifluoroacetate salt], the IC50 rises from less than 500 nM to greater than 10000 nM. The first is the more potent here.

`COCCOc1ccc(Nc2ncc(Cl)c(Nc3ccc4oc(=O)[nH]c4c3)n2)c(F)c1OCCOC` [Compound I-78, 5-(5-chloro-2-(2-fluoro-3,4-bis(2-methoxyethoxy)phenylamino)pyrimidin-4-ylamino)benzo[d]oxazol-2(3H)-one trifluoroacetate salt] and `COc1ccc(Nc2ncc(C)c(Nc3ccc4oc(=O)[nH]c4c3)n2)c(F)c1OC` [Compound I-102, 5-(2-(2-fluoro-3,4-d6-dimethoxyphenylamino)-5-methylpyrimidin-4-ylamino)benzo[d]oxazol-2(3H)-one] cannot be ordered by IC50: less than 500 nM for the first, less than 500 nM for the second.

First: O=c1[nH]c2cc(Nc3nc(Nc4ccccc4)ncc3Cl)ccc2o1 [Compound I-4, 5-(5-chloro-2-(phenylamino)pyrimidin-4-ylamino)benzo[d]oxazol-2(3H)-one trifluoroacetate salt]
Second: O=c1[nH]c2cc(Nc3nc(Nc4ccccc4)ncc3[N+](=O)[O-])ccc2o1 [Compound I-41, 5-(5-nitro-2-(phenylamino)pyrimidin-4-ylamino)benzo[d]oxazol-2(3H)-one trifluoroacetate salt]
The IC50 of the first is lower: less than 500 nM for the first, 5000 to 10000 nM for the second. The first is the more potent here.

`O=C(NC1CC1)c1ccc(Nc2ncc(F)c(Nc3ccc4oc(=O)[nH]c4c3)n2)cc1` [Compound I-161, N-cyclopropyl-4-(5-fluoro-4-(2-oxo-2,3-dihydrobenzo[d]oxazol-5-ylamino)pyrimidin-2-ylamino)benzamide formate salt] and `COc1ccc(Nc2ncc(F)c(Nc3ccc4oc(=O)[nH]c4c3)n2)cc1` [Compound I-196, 5-(2-(4-methoxyphenylamino)-5-fluoropyrimidin-4-ylamino)benzo[d]oxazol-2(3H)-one formate salt] cannot be ordered by IC50: less than 500 nM for the first, less than 500 nM for the second.

First: COc1cc(Nc2ncc(CO)c(Nc3ccc4oc(=O)[nH]c4c3)n2)cc(C)c1F [Compound I-80, 5-(2-(4-fluoro-3-methoxy-5-methylphenylamino)-5-(hydroxymethyl)pyrimidin-4-ylamino)benzo[d]oxazol-2(3H)-one trifluoroacetate salt]
Second: COc1cc(Nc2ncc(F)c(Nc3ccc4oc(=O)[nH]c4c3)n2)cc(C)c1F [Compound I-181, 5-(2-(4-fluoro-3-methoxy-5-methylphenylamino)-5-fluoropyrimidin-4-ylamino)benzo[d]oxazol-2(3H)-one trifluoroacetate salt]
The IC50 of the first is higher: 500 to 5000 nM for the first, less than 500 nM for the second. The second is the more potent here.

`CCN(CC)c1cc(Nc2ncc(C)c(Nc3ccc4oc(=O)[nH]c4c3)n2)cc(C)c1C` [Compound I-84, 5-(2-(3-(diethylamino)-4,5-dimethylphenylamino)-5-methylpyrimidin-4-ylamino)benzo[d]oxazol-2(3H)-one formate salt] and `COc1cc(Nc2ncc(F)c(Nc3ccc4oc(=O)[nH]c4c3)n2)cc(C)c1C` [Compound I-195, 5-(2-(3-methoxy-4,5-dimethylphenylamino)-5-fluoropyrimidin-4-ylamino)benzo[d]oxazol-2(3H)-one trifluoroacetate salt] cannot be ordered by IC50: less than 500 nM for the first, less than 500 nM for the second.

First: COc1cc(Nc2ncc(F)c(Nc3ccc4oc(=O)[nH]c4c3)n2)ccc1-c1ccncc1 [Compound I-207, 5-(2-(3-methoxy-4-(pyridin-4-yl)phenylamino)-5-fluoropyrimidin-4-ylamino)benzo[d]oxazol-2(3H)-one formate salt]
Second: O=c1[nH]c2cc(Nc3nc(Nc4ccc(F)c(-c5cccnc5)c4)ncc3F)ccc2o1 [Compound I-206, 5-(2-(4-fluoro-3-(pyridin-3-yl)phenylamino)-5-fluoropyrimidin-4-ylamino)benzo[d]oxazol-2(3H)-one]
The IC50 of the first is higher: greater than 10000 nM for the first, less than 500 nM for the second. The second is the more potent here.

First: COc1cccc(Nc2ncc(F)c(Nc3ccc4oc(=O)[nH]c4c3)n2)c1F [Compound I-20, 5-(5-fluoro-2-(2-fluoro-3-methoxyphenylamino)pyrimidin-4-ylamino)benzo[d]oxazol-2(3H)-one trifluoroacetate salt]
Second: COc1ccc(Nc2ncc(C)c(Nc3ccc4oc(=O)[nH]c4c3)n2)cc1N [Compound I-34, 5-[2-(3-Amino-4-methoxy-phenylamino)-5-methyl-pyrimidin-4-ylamino]-3H-benzooxazol-2-one]
The IC50 of the first is higher: 500 to 5000 nM for the first, less than 500 nM for the second. The second is the more potent here.

`COc1ccc(Nc2ncc(F)c(Nc3cc(F)c4oc(=O)[nH]c4c3)n2)cc1C` [Compound I-180, 5-(2-(4-methoxy-3-methylphenylamino)-5-fluoropyrimidin-4-ylamino)-7-fluorobenzo[d]oxazol-2(3H)-one trifluoroacetate salt] and `COc1cc(Nc2ncc(C)c(Nc3ccc4oc(=O)[nH]c4c3)n2)ccn1` [II-17, N2-(2-methoxypyridin-4-yl)-5-methyl-N4-(2-oxo-2,3-dihydro-1,3-benzoxazol-5-yl)-2,4-pyrimidinediamine] cannot be ordered by IC50: less than 500 nM for the first, less than 500 nM for the second.

First: Cc1cnc(Nc2ccc3c(c2)C(=O)OC3)nc1Nc1ccc2oc(=O)[nH]c2c1 [II-8, 5-methyl-N4-(2-oxo-2,3-dihydro-1,3-benzoxazol-5-yl)-N2-(1-oxo-1,3-dihydro-isobenzofuran-6-yl)-2,4-pyrimidinediamine]
Second: COc1cc(Nc2ncc([N+](=O)[O-])c(Nc3ccc4oc(=O)[nH]c4c3)n2)cc(C(F)(F)F)c1 [Compound I-47, 5-(2-(3-methoxy-5-(trifluoromethyl)phenylamino)-5-nitropyrimidin-4-ylamino)benzo[d]oxazol-2(3H)-one trifluoroacetate salt]
The IC50 of the first is lower: less than 500 nM for the first, greater than 10000 nM for the second. The first is the more potent here.

From patent US11174251B2, “Compositions and methods for inhibition of the JAK pathway” (Rigel Pharmaceuticals, Inc., priority 2010, dated 2021)
